Several values for one entry are separate records, joined by “and”; a condition that tells them apart may be missing. Identical values can stand only once. Counter-ions that a name gives are not always drawn. Like-named read-outs stand apart in the source and are kept apart here.
How the values were obtained:
Sprague Dawley rats = system: Sprague Dawley rats
Method: This study examined toxicity from repeat IV administration of mCBS in rats over 7 days with doses up to 1000 mg/kg.
The acute tolerability and toxicity of β-O-methyl cellobioside sulfate was assessed in Sprague Dawley rats following daily intravenous dose administration for a period of seven days. A total of four groups of n=3 adult female rats were treated with 0, 100, 300 and 1000 mg/kg doses of mCBS in the form of the sodium salt (mCBS.Na) in this repeated dose study. […] The rats were then observed for 7 days prior to termination with gross necropsy and terminal haematology and biochemistry analyses. An additional group of n=3 male rats were also treated at the highest dose of 1000 mg/kg according to the same study design.

[1] = Pharmacokinetics, intravenous bolus 100 mg/kg (plasma and urine); type: in vivo, rat
Method: A total of nine blood samples were collected from each rat at time points ranging from pre-dose to 192 hours post-dose. Urine samples were also collected over the first 48 hours. The resulting blood samples were processed to plasma. The urine and plasma samples were subsequently analysed for the concentration of mCBS (free-base) using LC-MS/MS based methods.

[2] = Pharmacokinetics, 5 hour intravenous infusion; type: in vivo, rat
Method: The pharmacokinetics (PK) of mCBS were studied following intravenous administration as an infusion over a 5 hours period to male Sprague Dawley rats. In this study the pharmacokinetics of the mCBS compound were investigated following intravenous infusion. The compound was formulated using Hartman's solution and administered to a group of n=3 rats at the rate of 25.3 mg/kg/h (total dose: 126.5 mg/kg; Group 1) and to a second group of n=3 rats at the rate of 50.6 mg/kg/h (total dose: 253 mg/kg; Group 2).
A total of six blood PK samples were collected from each rat at time points ranging from pre-dose to 5 hours after the start of the infusion. The resulting blood samples were processed to plasma, and subsequently analysed for the concentration of mCBS using an LC-MS/MS based method. Phoenix 64 WinNonlin® software was used to estimate area under the concentration versus time curve (AUC) values over the 0 to 5 h infusion interval. Values for concentration at steady state (Css) and clearance (Cl) were also estimated.

Sprague-Dawley rats = system: Sprague-Dawley rats
Method: The objective of these studies was to determine the toxicity of the test item, mCBS, when administered by continuous (24 hours/day) intravenous infusion through a surgically implanted catheter for 7 consecutive days to Sprague-Dawley rats.
The test and control item dose formulations of mCBS (in the form of the heptasodium salt mCBS.Na) were administered to groups of rats by continuous (24 hours/day) intravenous infusion for 7 consecutive days as described in the Table 14 below.
Parameters monitored during this study included mortality, clinical observations, body weights and food consumption. In addition, hematology, coagulation and clinical chemistry parameters were evaluated on Day 9. Blood samples were collected from the animals at timepoints relative to the start of the infusion for analysis of test item concentration in plasma. At termination (Day 9), all animals were euthanized and subjected to a gross necropsy examination. Organ weights were measured on selected organs and a selected list of tissues, including gross lesions, were retained and prepared for microscopic evaluation.

Wistar rats = assay: Rat ischemia reperfusion tissue flap model; type: in vivo; details: 50 mg/kg i.p., 72 h
Excerpt: Rat ischemia reperfusion tissue flap model. The procedure employed is largely based on a previously described method (Askar, I., Oktay, M. F., Gurlek, A. & Bac, B. Protective effects of some antineoplastic agents on ischemia-reperfusion injury in epigastric island skin flaps. Microsurgery 26, 193-199, doi:10.1002/micr.20193 (2006)). Briefly, male Wistar rats were anaesthetised, locally depilated and a 3 cm by 6 cm fasciocutaneous flap was excised leaving the vascular pedicle intact. […] The clamp was removed […] post-application permitting returned blood flow to the flap. Test compounds (50 mg kg^−1) or saline were administered i.p. 5 min prior to clamp application and 5 min following its removal. The rats were monitored for a total experimental period of 72 h during which rats received additional compound or saline i.p. at 24 and 48 h post-op. The ‘Control No Clamp’ rats had the tissue flap excised and rubber placed underneath prior to re-suturing, however, the vessel was not clamped and they received saline at the same time points as the other rats. At the end of the experimental period the viability of the flaps was determined by the percentage of black necrotic or reddened areas vs pink viable areas. […]

human RBCs [3] = assay: Histone-induced RBC aggregation (flow cytometry autofluorescence, SEM); type: cell-based
human RBCs [4] = assay: Histone-induced RBC fragility / lysis under shear; type: cell-based
human platelets = assay: Histone-induced platelet aggregation; type: cell-based; details: compounds added prior to histones 150 μg/mL
[5] = IV bolus 100 mg/kg as sodium salt
[6] = animals treated with 1394 mg/kg/day (free base)
[7] = histones 400 μg/mL 55 min, then mCBS 5 min

CO[C@@H]1O[C@H](COS(=O)(=O)O)[C@@H](O[C@@H]2O[C@H](COS(=O)(=O)O)[C@@H](OS(=O)(=O)O)[C@H](OS(=O)(=O)O)[C@H]2OS(=O)(=O)O)[C@H](OS(=O)(=O)O)[C@H]1OS(=O)(=O)O [mCBS, β-O-methyl cellobioside sulfate]
tolerability (Sprague Dawley rats; daily IV bolus 100, 300 and 1000 mg/kg for 7 days): well tolerated at all dose levels
MTD, as free base (Sprague Dawley rats; daily IV bolus for 7 days, corrected for purity and sodium content): 815 mg/kg
MTD (Sprague Dawley rats; daily IV bolus for 7 days, dose as sodium salt form): 1000 mg/kg
Hematology and biochemistry parameters (Sprague Dawley rats; daily IV bolus up to 1000 mg/kg for 7 days): unremarkable
concentration that doubled the control clotting time (whole blood coagulation): 100 µg/mL
reduction in anticoagulant activity compared to LMWH, Enoxaparin (whole blood coagulation): 110 fold
percent of total dose excreted in urine, mean (±SEM) ([1]; 0-4 h post-dosing): 52.0 (±5.0) %
percent of total dose excreted in urine, mean (±SEM) ([1]; 0-24 h post-dosing): 65.0 (±7.0) %
percent of total dose excreted in urine, mean (±SEM) ([1]; 0-48 h post-dosing): 69.2 (±10.8) %
AUCinf [1, 5]: 135,000 ng·h/mL
AUClast [1, 5]: 135,000 ng·h/mL
distribution half-life [1, 5]: 0.65 h
mean residence time (MRT) [1, 5]: 1.43 h
terminal total body clearance (Cl) [1, 5]: 10.1 mL/min/kg
volume of distribution (Vz) [1, 5]: 49.0 L/kg
concentration at time zero (C0) ([1]; IV bolus 100 mg/kg as sodium salt (81.5 mg/kg free base), pooled mean plasma data, 6 rats): 308,000 ng/mL
apparent terminal elimination half-life (T½) ([1]; IV bolus 100 mg/kg as sodium salt, 100 mg/kg): 56.1 h and ~56 h
Cl, mean (±SEM) ([2]; Group 1, 25.3 mg/kg/h): 0.601 (±0.081) l/h/kg
Css, mean (±SEM) ([2]; Group 1, 25.3 mg/kg/h): 58,400 (±6,920) ng/ml
AUC 0-5 h infusion interval, mean (±SEM) ([2]; Group 1, IV infusion 25.3 mg/kg/h for 5 h): 260,000 (±30,200) ng·h/mL
Cl, mean (±SEM) ([2]; Group 2, 50.6 mg/kg/h): 0.571 (±0.025)
Css, mean (±SEM) ([2]; Group 2, 50.6 mg/kg/h): 120,000 (±5,560) ng/ml
AUC 0-5 h infusion interval, mean (±SEM) ([2]; Group 2, IV infusion 50.6 mg/kg/h for 5 h): 532,000 (±25,500) ng·h/mL
time of infusion to reach steady state plasma level (Css) ([2]; IV infusion): 2 h
Css and AUC at 50 mg/kg/hr compared to 25 mg/kg/hr ([2]; IV infusion 5 h): 2 fold
APTT (coagulation test) ([2]; rats treated with the higher dose): higher APTT score compared to the reference range
AUC5-96 h and Css versus dose (Sprague-Dawley rats; 1394-5575 mg/kg/day): increased linearly with dose
plasma concentration versus time (Sprague-Dawley rats; 5 h to 96 h (or 168 h) infusion interval): steady state concentrations of mCBS were maintained
liver microscopic findings (Sprague-Dawley rats; [6]): accumulation of foamy Kupffer cells
lymph node microscopic findings (Sprague-Dawley rats; [6]): accumulation of foam macrophages
liver microscopic findings (Sprague-Dawley rats; animals treated with 2178 mg/kg/day (free base)): single cell necrosis
liver microscopic findings (Sprague-Dawley rats; animals treated with 2178 and 5575 mg/kg/day): focal or multiple focal necrosis
spleen microscopic findings (Sprague-Dawley rats; animals treated with ≤1394 mg/kg/day (so in the source), free base): accumulation of foamy macrophages associated with increased apoptotic cells in the red pulp
kidney microscopic findings (Sprague-Dawley rats; animals treated with ≤2178 mg/kg/day (so in the source), free base): proximal tubular vacuolation/rarefaction
urea, total protein and albumin (Sprague-Dawley rats; both sexes at 5575 mg/kg/day): increase in urea and decreases in total protein and albumin
white blood cell lines (Sprague-Dawley rats; both sexes at doses ≤3484 mg/kg/day (so in the source)): Increases in white blood cell lines
body weight gain and food consumption (Sprague-Dawley rats; both sexes, 5575 mg/kg/day (free base)): Decreases in body weight gain
No Observable Adverse Effect Level (NOAEL) (Sprague-Dawley rats; free base, corrected for potency and salt content, continuous IV infusion 7 days): 1394 mg/kg/day
red blood cell parameters and reticulocytes (Sprague-Dawley rats; males at 5575 mg/kg/day): decreases in red blood cell counts, hemoglobin, hematocrit, mean corpuscular volume and mean corpuscular hemoglobin concentration as well as increases in the reticulocytes
activated partial thromboplastin time (Sprague-Dawley rats; males at doses 2178 mg/kg/day, females at doses ≤3484 mg/kg/day (so in the source)): Increases in activated partial thromboplastin time
Liver enzymes (ALT, AST), cholesterol and triglycerides (Sprague-Dawley rats; males dosed at 5575 mg/kg/day): increased
viable area of the skin flap (Wistar rats): consistently and significantly increased the viable area of the skin flap
inhibition of histone-induced RBC aggregation (human RBCs [3]; 0-200 μg/mL added prior to 400 μg/mL histones): inhibit histone-induced RBC aggregation in a dose dependent manner
reversal of histone-induced RBC aggregation (human RBCs [3]; [7]): near complete inhibition
prevention of histone-induced RBC aggregation (human RBCs [3]; mCBS 200 μg/mL, histones 400 μg/mL 60 min): prevented
inhibition of histone-induced RBC lysis under shear (human RBCs [4]; 0-200 μg/mL prior to 400 μg/mL histones 60 min, 100 mm/s, 40× repetitions): inhibit histone-induced lysis under shear in a dose-dependent manner
reversal of histone-induced RBC susceptibility to lysis (human RBCs [4]; [7]): near complete inhibition
histone-induced platelet aggregation (human platelets): significantly reduced

Reference: US11628179B2, “Compounds for treating and preventing extracellular histone mediated pathologies” (priority 2017, dated 2023)
